From article PMC6274353, “The Blood-Brain Barrier Permeability of Lignans and Malabaricones from the Seeds of Myristica fragrans in the MDCK-pHaMDR Cell Monolayer Model” (Molecules, 2016)

How the values were obtained:
[1] = bidirectional transport across the MDCK-pHaMDR cell monolayer (in vitro BBB model); settings: dog, MDCK-MDR1, pH 7.35
Experimental: (§1) The MDCK-pHaMDR cells were seeded at a density of about 8 × 10^4 cells/mL on the 12-well Transwell® plates. After an eight-day culture, the cells reached confluence and differentiation for the transport study.
(§2) On the 8th day, the monolayers were washed twice and shaken at 55 rpm for 30 min with HBSS at 37 °C. Then, the TEER was measured with an epithelial volt-ohm meter (EVOM; World Precision Instrument) to examine the monolayer's integrity. Only those with the TEER values above 1000 Ω·cm^2 were qualified for the transport.
(§3) The bidirectional transport assay was initiated by adding a test compound to either the apical (0.5 mL for apical to basolateral transport, A→B) or the basolateral (1.5 mL for basolateral to apical transport, B→A) side. After shaking at 55 rpm and 37 °C for a certain time, samples (A→B: 400 µL from the apical side and 1300 µL from the basolateral side; B→A: 450 µL from the apical side and 450 µL from the basolateral side) were collected, immediately frozen, lyophilized and preserved below –20 °C before analysis.
(§4) Papp of each compound was calculated based on the following equation: (1) Papp = (ΔQ/Δt)/(AC0) (cm/s) where ΔQ/Δt is the appearance rate of the test compound at the receiver side (µmol/s), C0 is the initial concentration of the test compound at the donor side (µM), and A is the membrane surface area (cm^2). All of the experiments were conducted in triplicate.

[2] = tested on: MDCK-pHaMDR cell monolayer; test: as above; settings: classed by Papp against caffeine and atenolol
Experimental: as §1, §2, §3, §4

[3] = tested on: P-glycoprotein (P-gp); test: in vitro; settings: dog

| Compound | Papp A→B at 90 min, 100 µM [1] | Papp B→A at 90 min, 100 µM [1] | Papp at 90 min, 100 µM [1] | permeability (in words) [2] | Papp [1] | Papp B→A ([3]; MDCK-MDR1) | Papp B→A ([3]; MDCK-MDR1, with verapamil 100 µM) |
| --- | --- | --- | --- | --- | --- | --- | --- |
| COc1cc([C@H]2O[C@@H](c3ccc(O)c(OC)c3)[C@@H](C)[C@@H]2C)ccc1O [Compound 8, verrucosin] | 10.9 ± 0.32 ×10⁻⁶ cm/s | 20.4 ± 0.97 ×10⁻⁶ cm/s | – | – | – | – | – |
| COc1cc([C@H]2c3cc(O)c(OC)cc3C[C@@H](C)[C@@H]2C)ccc1O [Compound 11, guaiacin] | < 0.075 ×10⁻⁶ cm/s | < 0.073 ×10⁻⁶ cm/s | ≤ 0.01 ×10⁻⁶ cm/s | – | – | – | – |
| COc1cc2c(cc1O)[C@H](c1ccc3c(c1)OCO3)[C@@H](C)[C@H](C)C2 [Compound 12, otobaphenol] | < 0.073 ×10⁻⁶ cm/s | < 0.07 ×10⁻⁶ cm/s | ≤ 0.01 ×10⁻⁶ cm/s | – | – | – | – |
| COc1cc(CC(C)C(C)Cc2ccc(O)c(OC)c2)ccc1O (stereo not drawn) [Compound 10, dihydroguaiaretic acid] | < 0.145 ×10⁻⁶ cm/s | < 0.14 ×10⁻⁶ cm/s | ~0.1 ×10⁻⁶ cm/s | – | – | – | – |
| COc1cc([C@H]2O[C@@H](c3ccc(O)c(OC)c3)[C@H](C)[C@@H]2C)ccc1O [Compound 9, nectandrin B] | 10.4 ± 1.49 ×10⁻⁶ cm/s | 15 ± 1.27 ×10⁻⁶ cm/s | – | – | – | – | – |
| C/C=C/c1cc(OC)c2c(c1)[C@@H](C)[C@H](c1ccc3c(c1)OCO3)O2 [Compound 3, licarin B] | < 0.062 ×10⁻⁶ cm/s | < 0.06 ×10⁻⁶ cm/s | ≤ 0.01 ×10⁻⁶ cm/s | very poor permeability | – | – | – |
| Cn1c(=O)c2c(ncn2C)n(C)c1=O [caffeine, reference compound] | – | – | – | – | 24.4 ± 1.1 ×10⁻⁶ cm/s | – | – |
| C/C=C/c1cc(OC)c2c(c1)[C@@H](C)[C@H](c1cc(OC)c3c(c1)OCO3)O2 [Compound 4, 3′-methoxylicarin B] | < 0.057 ×10⁻⁶ cm/s | < 0.055 ×10⁻⁶ cm/s | ≤ 0.01 ×10⁻⁶ cm/s | very poor permeability | – | – | – |
| C/C=C/c1cc(OC)c2c(c1)[C@@H](C)[C@H](c1ccc(O)c(OC)c1)O2 (racemic) [Compound 1, Dehydrodiisoeugenol] | 2.43 ± 0.32 ×10⁻⁶ cm/s | 1.82 ± 0.18 ×10⁻⁶ cm/s | ~1 ×10⁻⁶ cm/s | – | – | – | – |
| O=C(CCCCCCCCc1ccc(O)c(O)c1)c1c(O)cccc1O [Compound 15, malabaricone C] | 0.64 ± 0.07 ×10⁻⁶ cm/s | 0.63 ± 0.04 ×10⁻⁶ cm/s | ~0.1 ×10⁻⁶ cm/s | – | – | – | – |
| O=C(CCCCCCCCc1ccccc1)c1c(O)cccc1O [Compound 13, malabaricone A] | < 0.038 ×10⁻⁶ cm/s | < 0.037 ×10⁻⁶ cm/s | ≤ 0.01 ×10⁻⁶ cm/s | – | – | – | – |
| COC(=O)c1ccccc1-c1c2ccc(=N)cc-2oc2cc(N)ccc12 [rhodamin 123, rhodamine 123] | – | – | – | – | – | 3.31 ± 0.12 ×10⁻⁶ cm/s | 1.52 ± 0.08 ×10⁻⁶ cm/s |
